# Reference: patent publication US8138153B2, “Potassium channel modulator peptide” (National Centre for Biological Sciences, priority 2004, dated 2012)
# Test system: K^+ currents (voltage dependent potassium channels) in DRG neurons
# Type: cell-based, Wistar rats
substance,measurement,value
FHGGSWYRFPWGY-NH2 [Mo1659],Effect on fast transient K^+ current component,not significantly affected
